In general, IC50 refers to the concentration that gives 50% inhibition. A lower IC50 goes with higher potency.

Among the data in patent US12414952B2 (Merck Sharp & Dohme LLC, priority 2018, dated 2025) are IC50 values, retold here.

Assay [1] concerns the target T1, human A2a adenosine receptor (Homo sapiens (Human), UniProt P29274). In words: A2a binding affinity using SPA, Method (B). To be noted: Method (B): [3H]SCH58261 SPA. The source says: (§1) The A2a receptor affinity binding assay measured the amount of binding of a tritiated ligand with high affinity for the A2a adenosine receptor to membranes made from HEK293 or CHO cells recombinantly expressing the human A2a adenosine receptor, in the presence of varying concentrations of a compound of the invention. The data were generated using either filtration binding or a homogenous scintillation proximity assay (SPA).
Method (B): Measurement of A2a Binding Affinity Using SPA
Binding affinity using SPA was conducted as follows. Test compounds (50 nL) were dispensed into individual wells of a 384-well OptiPlate™ well (Perkin Elmer) by Echo® acoustic liquid transfer (Labcyte). 20 μL of 1.25 nM [^3H] SCH58261 ((7-(2-phenylethyl)-5-amino-2-(2-furyl)-pyrazolo-[4,3-e]-1,2,4-triazolo[1,5-c]pyrimidine)) in DPBS assay buffer (Dulbecco's phosphate buffered saline without calcium and magnesium, ThermoFisher Scientific, Cat. No. A1285601) supplemented with 10 mM MgCl2 was added. A2a receptor-expressing membranes were incubated with 20 μg/mL adenosine deaminase (Roche, Cat. No. 10 102 105 001) for 15 min at room temperature. The receptor-expressing membranes were then combined with wheat germ agglutinin-coated yttrium silicate SPA beads (GE Healthcare, Cat. No. RPNQ0023) in a ratio of 1:1000 (w/w) and incubated for 30 min at room temperature. 30 μL of the membrane/bead mixture (0.25 μg and 25 μg per well respectively) were added to the 384-well OptiPlate™ well. To define total and non-specific binding, wells containing 1% DMSO or 1 μM CGS15943 (Tocris Bioscience, Cat. No. 1699) respectively were also included in the experiment. The plate was incubated for one h at room temperature with agitation. The assay plate was then incubated for an h to allow the beads to settle before data were collected using a TopCount® (Perkin Elmer) scintillation counter. After normalization to total and non-specific binding, the percent effect at each compound concentration was calculated. The plot of percent effect versus the log of compound concentration was analyzed electronically using a 4-parameter logistic fit based on the Levenberg-Marquardt algorithm to generate IC50 values.

The target in assay [2] is T1, human A2a adenosine receptor. Nature of the assay: A2a binding affinity using an alternative radioligand binding assay, Method (C). The following applies: Method (C): [3H]CGS21680, CHO.A2a membranes.
Description: as §1
Method (C): Measurement of A2a Binding Affinity Using an Alternative Radioligand Binding Assay
Membranes used in this procedure were made by washing cell cultures twice with DPBS buffer (Dulbecco's phosphate buffered saline without calcium and magnesium, ThermoFisher Scientific, Cat. No. A1285601), and harvesting the cell cultures by mechanical scraping. The cells were collected by centrifugation and re-suspended in 10 mM HEPES, pH 7.4 containing 0.1 mM benzamidine (Sigma, Cat. No. B6506) and 0.1 mM PMSF (phenylmethylsulfonyl fluoride, Sigma, Cat. No. 10837091001). Cells were freeze-thawed twice in a dry ice/ethanol bath and homogenized with 25 to 30 strokes in a glass dounce homogenizer (Wheaton, Cat. No. 357546). Membranes were pelleted at 40,000×g for 20 min at 4° C. and re-suspended in assay buffer (5 mM HEPES, pH 7.4, 5 mM MgCl2; supplemented with 0.1 mM benzamidine) at a protein concentration of 2.6 mg/mL. Protein concentration was determined by the Bio-Rad method (Bio-Rad, Cat. No. 5000002). Membranes were then incubated with adenosine deaminase (final concentration 2U/mL) for 20 min at 37° C. before use in the binding assay.
To perform the binding assay, 50 μg CHO.A2a membranes, 5 nM [^3H]CGS21680 (Perkin Elmer, Cat. No. NET1021), and 1 μL of test compound were combined in individual tubes to a volume of 100 μL. To define total and non-specific binding, wells containing 1% DMSO and 20 μM N-ethylcarboxamidoadenosine (Tocris Bioscience, Cat. No. 1691) respectively, were also included. The samples were incubated for 2 h at 37° C. The samples were filtered rapidly through a glass fiber filter using a cell harvester and washed with cold buffer (10 mM Tris, pH7.4, 5 mM MgCl2). The filter was allowed to dry and individual filters were placed into vials together with liquid scintillant and subjected to scintillation counting. After normalization to total and non-specific binding, the percent effect at each compound concentration was calculated. The plot of percent effect versus the log of compound concentration was analyzed electronically using a 4-parameter logistic fit based on the Levenberg-Marquardt algorithm to generate IC50 values.

Assay [3] deals with human A2b adenosine receptor (Homo sapiens (Human), UniProt P29275). In words: A2b binding affinity, radioligand filtration binding assay. To be noted: tritiated proprietary A2b antagonist, HEK293 membranes. In short, it runs like this: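 Membranes from HEK293 cells recombinantly expressing human A2b were incubated with a tritiated proprietary A2b antagonist, with and without compound. Filter-bound radioactivity was counted by scintillation. Percent effect was normalized to total and non-specific binding, and IC50 came from a 4-parameter logistic fit.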

Assay [4] deals with T1, human A2a adenosine receptor. In words: A2a binding affinity using radioligand binding, Method (A). To be noted: Method (A): [3H]SCH58261 filtration binding. In short, it runs like this:
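Membranes from HEK293 or CHO cells expressing human A2a were preincubated with compound for 15–30 min at room temperature. [3H]SCH58261 was then added (4 nM working dilution) in 50 mM Tris pH 7.4, 10 mM MgCl2, 0.005% Tween20 for 60 min at room temperature. Bound radioactivity after filtration was normalised to total and non-specific binding, and IC50 came from 4-parameter logistic fits.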

The target is the same in assay [5]. In words: A2a receptor affinity binding assay, method not indicated. To be noted: method letter not given.
Description: Method (A) describes the procedure used to measure A2a binding affinity using radioligand binding. Method (B) describes the procedure used to measure A2a binding affinity using SPA technology. Method (C) describes an alternative procedure used to measure A2a binding affinity using radioligand binding. The method used to measure A2b binding affinity is also described below. The method used to determine the A2a IC50 value reported for each compound in the table is indicated next to the reported value. The A2b IC50 value measured using the A2b binding affinity assay is shown in the table next to the compound under the corresponding A2a value.
as §1

T1 sequence (P29274 whole entry): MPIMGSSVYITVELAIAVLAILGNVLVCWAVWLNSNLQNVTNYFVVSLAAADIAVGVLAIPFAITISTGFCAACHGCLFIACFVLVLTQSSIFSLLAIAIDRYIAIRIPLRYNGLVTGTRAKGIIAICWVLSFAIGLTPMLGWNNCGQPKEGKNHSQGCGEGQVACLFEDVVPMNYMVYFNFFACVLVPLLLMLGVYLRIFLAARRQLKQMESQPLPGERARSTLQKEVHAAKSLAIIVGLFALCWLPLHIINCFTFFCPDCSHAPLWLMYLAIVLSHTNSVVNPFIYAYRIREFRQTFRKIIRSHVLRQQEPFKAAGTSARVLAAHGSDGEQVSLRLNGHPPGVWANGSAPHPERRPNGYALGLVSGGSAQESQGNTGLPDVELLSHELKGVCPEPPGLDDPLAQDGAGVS
Chain of human A2b adenosine receptor (P29275 whole entry): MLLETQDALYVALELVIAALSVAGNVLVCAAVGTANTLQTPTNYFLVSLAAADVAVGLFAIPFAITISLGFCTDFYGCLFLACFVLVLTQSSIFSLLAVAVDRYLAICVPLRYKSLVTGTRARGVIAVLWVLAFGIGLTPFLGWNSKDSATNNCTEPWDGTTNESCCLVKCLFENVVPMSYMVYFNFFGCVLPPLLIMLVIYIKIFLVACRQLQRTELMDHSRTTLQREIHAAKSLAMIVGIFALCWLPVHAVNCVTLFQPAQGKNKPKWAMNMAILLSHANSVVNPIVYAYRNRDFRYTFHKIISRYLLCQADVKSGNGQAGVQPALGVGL

Consider `Cc1nc2c(s1)CN(CCc1nc3c(C)c(-c4ncco4)nc(N)n3n1)CC2` [Example 1.8], for which the IC50 in assay [1] turned out to be 2.4 nM. In the case of `COc1ccccc1-c1cc2nc(CCN3CC(F)(F)C3)nn2c(N)n1` [Example 2.18], the IC50 in assay [2] stood at 668 nM. This lies in the sub-micromolar range. Still for that read-out and setting: for `COc1cccc(-c2cc3nc(CCN4CC(F)(F)C4)nn3c(N)n2)c1` [Example 2.19] the value was 389 nM; for `Nc1nc(-c2ccccc2F)cc2nc(CCN3CC(F)(F)C3)nn12` [Example 2.20], 241 nM. As for `Nc1nc(-c2cccc(F)c2)cc2nc(CCN3CC(F)(F)C3)nn12` [Example 2.21], the IC50 in assay [2] stood at 91.7 nM. This IC50 lies about 2.6-fold lower than the previous one. On to `Nc1nc(-c2ccc(F)cc2)cc2nc(CCN3CC(F)(F)C3)nn12` [Example 2.22], for which the IC50 in assay [2] amounted to 275 nM.

`Nc1nc(-c2ccccc2)cc2nc(CCN3CC(F)(F)C3)nn12` [Example 2.23] registered an IC50 in assay [2] of 150 nM. This IC50 is about 1.8-fold lower than that of the compound before. `Cc1nc2c(s1)CN(CCc1nc3c(C)c(-c4cnco4)nc(N)n3n1)CC2` [Example 2.26] displayed an IC50 in assay [1] of 6.6 nM. On the same count and under the same terms, in the case of `Cc1c(-c2ncco2)nc(N)n2nc(Cc3cc[nH]n3)nc12` [Example 7.5, 2-((1H-pyrazol-3-yl)methyl)-8-methyl-7-(oxazol-2-yl)-[1,2,4]triazolo[1,5-c]pyrimidin-5-amine] it was 4.7 nM. For `Cc1c(-c2ncco2)nc(N)n2nc(Cc3ccccn3)nc12` [Example 9.6, 8-methyl-7-(oxazol-2-yl)-2-(pyridin-2-ylmethyl)-[1,2,4]triazolo[1,5-c]pyrimidin-5-amine], in assay [1], the IC50 was 0.7 nM. Still for that read-out and setting: in the case of `Cc1cccc(Cc2nc3c(C)c(-c4ncco4)nc(N)n3n2)n1` [Example 9.7, 8-methyl-2-((6-methylpyridin-2-yl)methyl)-7-(oxazol-2-yl)-[1,2,4]triazolo[1,5-c]pyrimidin-5-amine] it was 0.5 nM.

In the case of `Cc1cccnc1Cc1nc2c(C)c(-c3ncco3)nc(N)n2n1` [Example 9.8, 8-methyl-2-((3-methylpyridin-2-yl)methyl)-7-(oxazol-2-yl)-[1,2,4]triazolo[1,5-c]pyrimidin-5-amine], the half-maximal inhibitory concentration (IC50) in assay [1] turned out to be 0.6 nM. For `Cc1c(-c2ncco2)nc(N)n2nc(CCN3CCc4c(nnn4C4CC(F)(F)C4)C3)nc12` [Example 17.14, 2-(2-(1-(3,3-difluorocyclobutyl)-1,4,6,7-tetrahydro-5H-[1,2,3]triazolo[4,5-c]pyridin-5-yl)ethyl)-8-methyl-7-(oxazol-2-yl)-[1,2,4]triazolo[1,5-c]pyrimidin-5-amine], the IC50 in assay [3] came out at 41.7 nM; in assay [4], 0.5 nM. The matching figures for `Cc1c(-c2ncco2)nc(N)n2nc(CCN3CCc4c(nnn4C45CC(C4)C5)C3)nc12` [Example 17.15, 2-(2-(1-(bicyclo[1.1.1]pentan-1-yl)-1,4,6,7-tetrahydro-5H-[1,2,3]triazolo[4,5-c]pyridin-5-yl)ethyl)-8-methyl-7-(oxazol-2-yl)-[1,2,4]triazolo[1,5-c]pyrimidin-5-amine]: 32 nM and 2.2 nM. The like results for `Cc1c(-c2ncco2)nc(N)n2nc(CCN3CCCC(F)(F)C3)nc12` [Example 17.16, 2-(2-(3,3-difluoropiperidin-1-yl)ethyl)-8-methyl-7-(oxazol-2-yl)-[1,2,4]triazolo[1,5-c]pyrimidin-5-amine] were, in that order, 1100 nM and 1.2 nM. The like results for `CCOC(=O)c1cnn(CCc2nc3c(C)c(-c4ncco4)nc(N)n3n2)c1` [Example 17.17, ethyl 1-(2-(5-amino-8-methyl-7-(oxazol-2-yl)-[1,2,4]triazolo[1,5-c]pyrimidin-2-yl)ethyl)-1H-pyrazole-4-carboxylate] were, in that order, 9670 nM and 34.9 nM.

Turning to `Cc1c(-c2ccc(F)cc2)nc(N)c2nc(CCN3CCn4c(cnc4C(C)C)C3)nn12` [Example 18.6, 6-(4-fluorophenyl)-2-(2-(3-isopropyl-5,6-dihydroimidazo[1,5-a]pyrazin-7(8H)-yl)ethyl)-5-methyl-[1,2,4] triazolo[1,5-a]pyrazin-8-amine], in assay [5], the IC50 turned out to be 346 nM.

In the case of `Nc1nc(-c2cc(F)ccc2F)c(C2CC2)n2nc(Cc3ccccc3)nc12` [Example 20.5, 2-benzyl-5-cyclopropyl-6-(2,5-difluorophenyl)-[1,2,4]triazolo[1,5-a]pyrazin-8-amine], the IC50 in assay [3] was found to be 117 nM; in assay [4], 13.5 nM.

For `CC(C)n1nnc2c1CCN(CCc1nc3c(C(F)(F)F)c(-c4cccc(F)c4)nc(N)n3n1)C2` [Example 23.7, 7-(3-fluorophenyl)-2-(2-(1-isopropyl-1,4,6,7-tetrahydro-5H-[1,2,3]triazolo[4,5-c]pyridin-5-yl)ethyl)-8-(trifluoromethyl)-[1,2,4]triazolo[1,5-c]pyrimidin-5-amine], the half-inhibitory concentration (IC50) in assay [3] worked out at 52.8 nM; in assay [4] it was 0.9 nM.
